Results reported in ChEMBL document CHEMBL1201862, “PubChem BioAssay data set” (2004).
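Each compound was tested at five concentrations against cells in 96-well plates for 48 hours. GI50: concentration for 50% inhibition of growth.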 Active and inactive are the calls of the source. Rule as the data show it: active = GI50 up to about 1.1 µM and inactive = higher.

How the values were obtained:
Assay in all cases: growth of human tumour cells (NCI), 48 h
ACHN = system: ACHN
RPMI-8226 = system: RPMI-8226
SF-268 = system: SF-268
786-0 = system: 786-0
NCI-H460 = system: NCI-H460
SK-MEL-28 = system: SK-MEL-28
HL-60 = system: HL-60
NCI-H522 = system: NCI-H522
NCI/ADR-RES = system: NCI/ADR-RES
SK-MEL-2 = system: SK-MEL-2
OVCAR-3 = system: OVCAR-3
TK-10 = system: TK-10
HCT-116 = system: HCT-116
SNB-75 = system: SNB-75
A498 = system: A498
MCF7 = system: MCF7
EKVX = system: EKVX
MOLT-4 = system: MOLT-4
UACC-257 = system: UACC-257
OVCAR-5 = system: OVCAR-5
IGROV-1 = system: IGROV-1
LOX IMVI = system: LOX IMVI
A549 = system: A549
HOP-62 = system: HOP-62
HT-29 = system: HT-29
OVCAR-8 = system: OVCAR-8
MDA-MB-231 = system: MDA-MB-231
U-251 = system: U-251
UACC-62 = system: UACC-62
SK-MEL-5 = system: SK-MEL-5
HCT-15 = system: HCT-15
CCRF-CEM = system: CCRF-CEM
MDA-MB-435 = system: MDA-MB-435
CAKI-1 = system: CAKI-1
Hs-578T = system: Hs-578T
Malme-3M = system: Malme-3M
SR = system: SR
RXF 393 = system: RXF 393
PC-3 = system: PC-3
OVCAR-4 = system: OVCAR-4
M14 = system: M14
SNB-19 = system: SNB-19
HCC 2998 = system: HCC 2998
K562 = system: K562
HOP-92 = system: HOP-92
NCI-H226 = system: NCI-H226
SN12C = system: SN12C
UO-31 = system: UO-31
KM12 = system: KM12
DU-145 = system: DU-145
MDA-N = system: MDA-N
COLO 205 = system: COLO 205
SF-295 = system: SF-295
T47D = system: T47D
SF-539 = system: SF-539
NCI-H23 = system: NCI-H23
SK-OV-3 = system: SK-OV-3
SW-620 = system: SW-620
BT-549 = system: BT-549

SMILES: OC1CCCC1C(O)(C(F)(F)F)C(F)(F)F (centres undefined)
- GI50 (ACHN): > 100 µM (inactive)
- GI50 (RPMI-8226): > 100 µM (inactive)
- GI50 (SF-268): > 100 µM (inactive)
- GI50 (786-0): > 100 µM (inactive)
- GI50 (NCI-H460): > 100 µM (inactive)
- GI50 (SK-MEL-28): > 100 µM (inactive)
- GI50 (HL-60): > 100 µM (inactive)
- GI50 (NCI-H522): > 100 µM (inactive)
- GI50 (NCI/ADR-RES): > 100 µM (inactive)
- GI50 (SK-MEL-2): > 100 µM (inactive)
- GI50 (OVCAR-3): > 100 µM (inactive)
- GI50 (TK-10): > 100 µM (inactive)
- GI50 (HCT-116): > 100 µM (inactive)
- GI50 (SNB-75): > 100 µM (inactive)
- GI50 (A498): > 100 µM (inactive)
- GI50 (MCF7): > 100 µM (inactive)
- GI50 (EKVX): > 100 µM (inactive)
- GI50 (MOLT-4): > 100 µM (inactive)
- GI50 (UACC-257): > 100 µM (inactive)
- GI50 (OVCAR-5): > 100 µM (inactive)
- GI50 (IGROV-1): > 100 µM (inactive)
- GI50 (LOX IMVI): > 100 µM (inactive)
- GI50 (A549): > 100 µM (inactive)
- GI50 (HOP-62): > 100 µM (inactive)
- GI50 (HT-29): > 100 µM (inactive)
- GI50 (OVCAR-8): > 100 µM (inactive)
- GI50 (MDA-MB-231): > 100 µM (inactive)
- GI50 (U-251): > 100 µM (inactive)
- GI50 (UACC-62): > 100 µM (inactive)
- GI50 (SK-MEL-5): > 100 µM (inactive)
- GI50 (HCT-15): > 100000 nM
- GI50 (CCRF-CEM): > 100 µM (inactive)
- GI50 (MDA-MB-435): > 100 µM (inactive)
- GI50 (CAKI-1): > 100 µM (inactive)
- GI50 (Hs-578T): > 100 µM (inactive)
- GI50 (Malme-3M): > 100 µM (inactive)
- GI50 (SR): > 100 µM (inactive)
- GI50 (RXF 393): > 100 µM (inactive)
- GI50 (PC-3): > 100 µM (inactive)
- GI50 (OVCAR-4): > 100 µM (inactive)
- GI50 (M14): > 100 µM (inactive)
- GI50 (SNB-19): > 100 µM (inactive)
- GI50 (HCC 2998): > 100 µM (inactive)
- GI50 (K562): > 100 µM (inactive)
- GI50 (HOP-92): > 100 µM (inactive)
- GI50 (NCI-H226): > 100 µM (inactive)
- GI50 (SN12C): > 100 µM (inactive)
- GI50 (UO-31): > 100 µM (inactive)
- GI50 (KM12): > 100 µM (inactive)
- GI50 (DU-145): > 100 µM (inactive)
- GI50 (MDA-N): > 100 µM (inactive)
- GI50 (COLO 205): > 100 µM (inactive)
- GI50 (SF-295): > 100 µM (inactive)
- GI50 (T47D): > 100 µM (inactive)
- GI50 (SF-539): > 100 µM (inactive)
- GI50 (NCI-H23): > 100 µM (inactive)
- GI50 (SK-OV-3): > 100 µM (inactive)
- GI50 (SW-620): > 100 µM (inactive)

SMILES: CNCCCn1c2ccccc2c2c3c(c(-c4ccsc4)cc21)C(=O)NC3=O
- GI50 (ACHN): < 0.0192 µM (active)
- GI50 (SF-268): 1.51 µM (inactive)
- GI50 (786-0): 0.259 µM (active)
- GI50 (NCI-H460): 1.35 µM (inactive)
- GI50 (SK-MEL-28): 1.78 µM (inactive)
- GI50 (HL-60): 2.22 µM (inactive)
- GI50 (NCI-H522): 1.66 µM (inactive)
- GI50 (NCI/ADR-RES): 0.71 µM (active)
- GI50 (SK-MEL-2): 0.0181 µM (active)
- GI50 (OVCAR-3): 1.15 µM (inactive)
- GI50 (TK-10): 1.35 µM (inactive)
- GI50 (BT-549): 2.1 µM (inactive)
- GI50 (HCT-116): 1.4 µM (inactive)
- GI50 (SNB-75): 1.91 µM (inactive)
- GI50 (A498): < 0.0104 µM (active)
- GI50 (MCF7): 0.0984 µM (active)
- GI50 (EKVX): 1.85 µM (inactive)
- GI50 (MOLT-4): 1.54 µM (inactive)
- GI50 (UACC-257): 1.58 µM (inactive)
- GI50 (OVCAR-5): 1.5 µM (inactive)
- GI50 (IGROV-1): 1.09 µM (active)
- GI50 (LOX IMVI): 1.33 µM (inactive)
- GI50 (A549): 1.17 µM (inactive)
- GI50 (HOP-62): 1.02 µM (active)
- GI50 (HT-29): 0.824 µM (active)
- GI50 (OVCAR-8): 0.281 µM (active)
- GI50 (MDA-MB-231): 1.57 µM (inactive)
- GI50 (U-251): 1.95 µM (inactive)
- GI50 (UACC-62): 1.49 µM (inactive)
- GI50 (SK-MEL-5): 0.735 µM (active)
- GI50 (HCT-15): 1510 nM
- GI50 (CCRF-CEM): 0.216 µM (active)
- GI50 (MDA-MB-435): 1.12 µM (active)
- GI50 (CAKI-1): 0.519 µM (active)
- GI50 (Hs-578T): 1.85 µM (inactive)
- GI50 (Malme-3M): 0.163 µM (active)
- GI50 (SR): < 0.01 µM (active)
- GI50 (RXF 393): 0.0112 µM (active)
- GI50 (PC-3): 0.178 µM (active)
- GI50 (OVCAR-4): 1.59 µM (inactive)
- GI50 (M14): 0.0408 µM (active)
- GI50 (SNB-19): 1.6 µM (inactive)
- GI50 (HCC 2998): 2.67 µM (inactive)
- GI50 (K562): 2.81 µM (inactive)
- GI50 (NCI-H226): 2.37 µM (inactive)
- GI50 (SN12C): 1.29 µM (inactive)
- GI50 (UO-31): 0.286 µM (active)
- GI50 (KM12): 0.0174 µM (active)
- GI50 (DU-145): 0.179 µM (active)
- GI50 (COLO 205): 1.39 µM (inactive)
- GI50 (SF-295): 0.0953 µM (active)
- GI50 (T47D): 2.09 µM (inactive)
- GI50 (SF-539): 0.0281 µM (active)
- GI50 (NCI-H23): 0.0822 µM (active)
- GI50 (SK-OV-3): 1.19 µM (inactive)
- GI50 (SW-620): 1.36 µM (inactive)
